The target in one experiment is T1, human GSK3β enzyme (Homo sapiens, UniProt P49841).
T1 construct: His6 (N); purchased Millipore 14-306; host or cells: baculovirus / Sf21 insect cells
The experiment is described as follows: In vitro GSK3β kinase assay (FRET, Z'-LYTE), Test (a). The experiment is classed as biochemical. To be noted: read-out: IC50 versus human GSK3β enzyme. From the text: This biochemical assay used a Fluorescence Resonance Energy Transfer (FRET)-based, coupled-enzyme format to determine the ability of test compounds to inhibit substrate phosphorylation by recombinant GSK3β serine/threonine kinase (Kleman-Leyer, K. et al. Drug Disc. Devel. 2003, 6:81-2). The substrate used in this assay was Z′-LYTE™ ser/Thr 9 peptide and the FRET assay kit was obtained from Invitrogen (Paisley, UK, catalogue number PV3324). N-terminal His6-tagged recombinant human GSK313, with an H350 L mutation, was expressed in baculovirus in Sf21 insect cells, purified and obtained from Millipore (Billerica, Mass., USA, catalogue number 14-306 Human).
Test compounds were prepared as 10 mM stock solutions in dimethylsulphoxide (DMSO) and diluted in DMSO as required. Aliquots (2.5 μl) of compound dilutions were added to the wells of an Optiplate-F PerkinElmer 384-well plate (Massachusetts, USA, catalogue number 6007270). Control wells that produced a maximum signal corresponding to maximum enzyme activity were created by using 100% phosphorylated peptide obtained from Invitrogen (Paisley, UK, catalogue number PV3326). A 5 μl aliquot of 100% phosphorylated peptide (100 μM in 1.33× kinase buffer) was added to all maximum control wells. 2.5 μl of 4% DMSO solution (v/v) in 1.33× kinase buffer was added to maximum control wells. Control wells that produced a minimum signal corresponding to 100% inhibited enzyme were created by adding 2.5 μl of 40 μM Staurosporine in 1.33× kinase buffer containing 4% DMSO (v/v). A 5 μl mixture of GSK3β (100 ng/μl) enzyme and non-phosphorylated substrate (Z-LYTE™ ser/Thr 9 peptide, 100 μM) in a 1.33× kinase buffer solution was added to each well except maximum control wells and the assay plate centrifuged at 270 g for 1 minute. The kinase buffer used 1.33× was obtained from Invitrogen (Paisley, UK, catalogue number PV3189) and contained 67 mM HEPES (pH 7.5), 13 mM MgCl2, 1.3 mM EGTA, 0.01% BRIJ-35. Then 2.5 μl adenosine triphosphate (28 μM) in kinase buffer was added per well, centrifuged at 270 g for 1 minute and then the assay plate was shaken for 1 hour at room temperature. A proprietary development solution was prepared by adding 58 μl of development reagent A (Invitrogen, Paisley, UK, catalogue number PV3297) to 2142 μl of development reagent B (Invitrogen, Paisley, UK, catalogue number P3127). […]
The resultant signals arising from laser light excitation at 400 nm were read using a Perkin Elmer Envision spectrophotometer (Perkin Elmer, Massachusetts, USA). […] A ratiometric method, which calculates the ratio (the Emission Ratio) of donor emission to acceptor emission after excitation of the donor fluorophore at 400 nm, quantitates reaction progress, as shown in the equation below. […]

Another experiment deals with T2, CYP3A4 (Homo sapiens, UniProt P08684).
T2 construct: purchased Cypex (Dundee, UK); host or cells: E. coli (membranes)
Nature of the experiment: CYP3A4 inhibition (midazolam oxidation to 1'-hydroxymidazolam). It counts as in vitro ADME. The note with it: E. coli expressed 3A4 membranes, midazolam 2.5 μM; read-out: IC50 CYP3A4 (estimated). As for the experimental part:
The ability of certain compounds to inhibit CYP3A4 in membranes was determined from the inhibition of midazolam oxidation to 1′-hydroxy midazolam. […] Employing an automated assay (full IC50) using the Automation Platform, up to thirteen compounds were run per plate as well as ketoconazole as a standard inhibitor of CYP3A4.
The incubations were carried out in 0.1 M phosphate buffer (pH 7.4 at 37° C.) containing DMSO (1%), midazolam (2.5 μM), phenacetin (25.7 μM), diclofenac (1.8 μM), S-mephenyloin (30.5 μM), bufuralol (8.8 μM), NADPH (1 mM), E. coli expressed 3A4 membranes (5 pmol/ml), 1A2 membranes (25 pmol/ml), 2C9 membranes (5 pmol/ml), 2C19 membranes (2.5 pmol/ml), 2D6 membranes (5 pmol/ml), and the test inhibitors ketoconazole, α-napthoflavone, sulphaphenazole, tranylcypromine and quinidine. […]
The assay was run on a robotic sample processor. […] The samples were centrifuged, transferred to a clean plate and analysed by LC MS/MS, which was conducted using an Applied Biosystems-Sciex API4000 mass spectrometer, with Agilent HP1100 binary solvent delivery pumps, and CTC HTS-PAL autosampler. […] The formation of product (1′-hydroxymidazolam) was monitored. […]
Rates of reaction were calculated for each reaction by measuring MS/MS area units. […]
The degree of inhibition of CYP3A4 was calculated and expressed as an IC50 value. […]

Where a name gives a salt, the structure may show the parent alone. Some results are limits rather than exact numbers.

T2 sequence (P08684 whole entry): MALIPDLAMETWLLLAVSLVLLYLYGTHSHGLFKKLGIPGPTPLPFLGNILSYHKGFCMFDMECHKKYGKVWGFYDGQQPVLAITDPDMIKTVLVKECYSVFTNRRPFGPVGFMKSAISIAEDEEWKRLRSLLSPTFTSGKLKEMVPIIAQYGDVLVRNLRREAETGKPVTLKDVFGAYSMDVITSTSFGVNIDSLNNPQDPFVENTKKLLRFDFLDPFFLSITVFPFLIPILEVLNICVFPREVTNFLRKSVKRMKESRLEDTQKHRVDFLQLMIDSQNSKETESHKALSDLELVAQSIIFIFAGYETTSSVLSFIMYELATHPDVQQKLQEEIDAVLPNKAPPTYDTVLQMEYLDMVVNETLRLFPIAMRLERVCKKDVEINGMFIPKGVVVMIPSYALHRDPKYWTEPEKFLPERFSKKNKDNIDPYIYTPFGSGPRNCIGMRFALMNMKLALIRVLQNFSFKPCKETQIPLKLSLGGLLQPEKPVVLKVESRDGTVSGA
T1 sequence (P49841 whole entry): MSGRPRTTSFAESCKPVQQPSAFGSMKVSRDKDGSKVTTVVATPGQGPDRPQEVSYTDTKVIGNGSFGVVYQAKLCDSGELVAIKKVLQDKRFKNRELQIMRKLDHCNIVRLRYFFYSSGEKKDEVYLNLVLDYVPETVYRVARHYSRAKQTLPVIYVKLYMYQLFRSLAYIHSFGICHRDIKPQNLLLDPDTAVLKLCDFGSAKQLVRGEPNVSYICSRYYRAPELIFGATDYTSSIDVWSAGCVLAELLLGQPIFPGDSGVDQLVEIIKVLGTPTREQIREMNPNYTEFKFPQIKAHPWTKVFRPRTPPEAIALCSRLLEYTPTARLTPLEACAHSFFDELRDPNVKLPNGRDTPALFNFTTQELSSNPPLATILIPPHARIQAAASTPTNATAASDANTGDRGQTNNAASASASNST

`COCCCNCCCc1ccc(-c2cnc(N)c(C(=O)Nc3cccnc3)n2)cc1` [Example 1, 3-Amino-6-(4-{3-[(3-methoxypropyl)amino]propyl}phenyl)-N-pyridin-3-ylpyrazine-2-carboxamide tri-hydrochloride]: the figures for the IC50 on human GSK3β enzyme and on CYP3A4 were about 35 nM and over 50000 nM, respectively.

As usually defined, the IC50 is the concentration that inhibits the measured activity by half.

The values are drawn from patent US8198285B2, “Pyrazine derivatives” (Astrazeneca AB, priority 2010, dated 2012).
